Assay results as given in patent US20230271969A1, “NITROGEN-CONTAINING FUSED RING DERIVATIVE INHIBITOR, PREPARATION METHOD THEREFOR AND USE THEREOF” (Shanghai Hansoh Biomedical Co., Ltd., priority 2020, published 2023).

Legend:
NK3 receptors [1] = biological target: T1, NK3 receptors (Homo sapiens, UniProt P29371); experiment: Calcium ion fluidity (FLIPR) in cells with stable expression of NK3 receptors; type: cell-based; details: calcium signal, antagonist mode, read-out: NK3R IC50 (nM) FLIPR
T1 construct: expressed in transfected cells
T1 sequence (P29371 1-465): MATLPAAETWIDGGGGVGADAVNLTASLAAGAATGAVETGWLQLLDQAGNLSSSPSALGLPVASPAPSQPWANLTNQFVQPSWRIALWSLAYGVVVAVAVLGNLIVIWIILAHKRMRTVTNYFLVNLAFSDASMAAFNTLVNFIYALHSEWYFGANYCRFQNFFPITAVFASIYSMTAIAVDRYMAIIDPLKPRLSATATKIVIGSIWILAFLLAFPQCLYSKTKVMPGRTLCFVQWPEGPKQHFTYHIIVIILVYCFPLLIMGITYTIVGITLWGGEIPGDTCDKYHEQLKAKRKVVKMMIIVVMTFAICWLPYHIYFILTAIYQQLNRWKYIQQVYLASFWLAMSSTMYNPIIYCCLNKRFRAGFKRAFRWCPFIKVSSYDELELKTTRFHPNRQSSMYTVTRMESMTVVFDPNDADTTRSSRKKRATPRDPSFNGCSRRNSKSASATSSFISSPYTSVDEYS

[2] = system: luteinizing hormone (LH) content in plasma; experiment: Luteinizing hormone (LH) content in plasma of bilateral ovariectomy (OVX) rats; type: in vivo; details: oral 30 mg/kg, plasma LH 0-8 h
Excerpt: Test Example 5. Effect of the Compounds of the Present Invention on Luteindzing Hormone (LH) Content in Plasma of Bilateral Ovariectomy (OVX) Rats
The objective of this test example was to determine the effect of the compounds on luteinizing hormone (LH) in plasma of bilateral ovarnectomy (OVX) rats.
10-Week-old female bilateral ovariectomy SD rats were purchased from Beijing Vital River Laboratory Animal Technology Co., Ltd. The animals were housed in a SPF grade animal facility with 5 SD rats per cage. The cages, bedding, feed and water were disinfected at high temperatures before use. All animals had free access to food and water.
Drug administration by groups: 10-Week-old female SD rats were subjected to bilateral ovariectomy and used in experiments after 3 weeks. Each SD rat was fasted overnight before the experiment, and then randomly divided into groups (3 rats per group) before the drug administration. Different test compounds were administered orally to each drug administration group at a dose of 30 mg/kg and a volume of 10 mL/kg.
Sample collection: 0.2-0.3 mL of whole blood of the SD rats in each group was collected at 0, 0.5, 1, 2, 4, 8 hours before and after the drug administration, and placed in EDTA-K2 tubes. The tubes were inverted and mixed well, and centrifuged at 4° C. at 5,000 rpm for 5 min. Then the plasma was separated and stored in an ultra-low temperature freezer (−80±10° C.).
Sample detection: All reagents, samples and ELISA plates were equilibrated at room temperature (20-25° C.) for at least 30 min. The sample was thawed, vortexed and centrifuged for use. The standard curve was prepared with Assay buffer C according to the concentration sequence of 10, 5, 2.5, 1.25, 0.625, 0.313 and 0. The sample was diluted by two folds with Sample dilution buffer G and left to stand at room temperature for 10 min. […] The OD values of each well was read at a wavelength of 450 nm with a microplate reader.
The standard curve was plotted by using Graphpad, and the concentration of the sample was calculated. […]

NK3 receptors [3] = biological target: T1, NK3 receptors; experiment: Antagonism of IP1 in HEK293 cells with stable expression of NK3; type: cell-based; details: agonist Senktide 3 nM, read-out: NK3R IC50 (nM) IP1

In the case of `[2H]c1cc(C(=O)N2CCn3c(-c4nc(Cl)ns4)nnc3[C@H]2C)ccc1Cl` [Example 73, (R)-(3-(3-Chloro-1,2,4-thiadiazol-5-yl)-8-methyl-5,6-dihydro-[1,2,4]triazolo[4,3-a]pyrazin-7(8H)-yl)(4-chlorophenyl-3-d)methanone], the IC50 (NK3 receptors [1]) was 267 nM and the “ΣAUC(ΔLH/LH · h, Mean ± SD)” value [2] was −2.04 ± 1.36 ΔLH/LH · h.

`[2H]c1cc(C(=O)N2CCn3c(-c4nc5cc(F)c(F)cc5s4)nnc3[C@H]2C)ccc1F` [Example 62] was tested, and the IC50 (NK3 receptors [1]) was 73.6 nM, the IC50 (NK3 receptors [3]) was 92.3 nM and the “ΣAUC(ΔLH/LH · h, Mean ± SD)” value [2] was −1.77 ± 0.42 ΔLH/LH · h.
